Assay results from US10865222B2, “Neisseria gonorrhoeae therapeutic based on CMP-nonulosonate sugars” (priority 2014, dated 2020).
“Also recorded” adds a separate entry of the source.

Assays:
[1] = test system: N. gonorrhoeae F62 ΔIgtD; type: cell-based
Method: FIG. 2. […] N. gonorrhoeae F62 ΔIgtD was grown in media alone (no CMP-sialic acid added), or media that contained 20 μg/ml (˜30 μM) of each of the indicated CMP-nonulosonates. Resistance of bacteria to complement-dependent killing in the presence of 3.3%, 6.7% or 10% normal human serum (NHS) was measured in serum bactericidal assays.
FIG. 5. […] N. gonorrhoeae F62 ΔIgtD was suspended in media containing 20 μg/ml (˜30 μM) CMP-Neu5Ac. Following 15 min of incubation at 37° C., CMP-Neu5Ac9Az or CMP-Leg5Ac7Ac (at concentrations of 20, 2 or 0.2 μg/ml final) were added and bacteria were incubated for 2 h. Serum bactericidal assays were then performed using 3.3% (solid black bars) or 10% (hatched bars) NHS. Controls included bacteria in media that lacked any CMP-nonulosonate, or bacteria that were incubated in CMP-Neu5Ac only. Y-axis, % survival.
We next determined the effects of incorporation of the CMP salts of five structural analogues of Neu5Ac (Neu5Gc, Neu5Ac9Ac, Neu5Ac9Az, Neu5Gc8Me and Leg5Ac7Ac) on the ability of N. gonorrhoeae F62 ΔIgtD to resist complement-dependent killing by normal human serum at concentrations of 10, 6.7 or 3.3%. Bacteria were grown either in media alone, or media supplemented with 30 μM (˜20 μg/ml) of each of the CMP-nonulosonates.
The ability of two of the CMP-nonulosonates, CMP-Neu5Ac9Az and CMP-Leg5Ac7Ac, to counter the ability of CMP-Neu5Ac to enhance serum resistance of N. gonorrrhoeae was then examined. The analogues were added at concentrations of 20, 2 or 0.2 μg/ml to growth media 15 min after the addition of CMP-Neu5Ac (20 μg/ml) to F62 ΔIgtD.
Serum bactericidal assays were performed as described previously (11). Bacteria harvested from an overnight culture on chocolate agar plates were grown in liquid media containing the specified concentration of CMP-nonulosonate as specified for each experiment. Approximately 2000 CFU of F62 ΔIgtD were incubated with NHS (concentration specified for each experiment). The final reaction volumes were maintained at 150 μl. […]

[2] = target: T1, gonococcal LOS sialyltransferase (Lst) (Neisseria gonorrhoeae, UniProt P72074); type: cell-based, N. gonorrhoeae; conditions: CMP salt 30 μM (20 μg/ml), 2 h at 37° C.
T1 construct: served as substrates for gonococcal Lst in the context of live bacteria; endogenous in cells; host or cells: N. gonorrhoeae F62 ΔlgtD (live bacteria)
Method: FIG. 1. Substrate specificity of gonococcal LOS sialyltransferase (Lst) N. gonorrhoeae strain F62 ΔIgtD was grown in standard gonococcal liquid media alone (‘No sialic acid’) or in media supplemented with CMP salts of the indicated sialic acid or nonulosonic acid, each at a concentration of 20 μg/ml (˜30 μM), for 2 h at 37° C. Bacteria were washed, pellets treated with protease K, lysed in 4×LDS buffer and lysates were separated on 12% Bis-Tris gels using MES running buffer. LOS was transferred to a PVDF membrane and probed with mAb 3F11 that recognizes the lacto-N-neotetraose only in the non-sialylated state; the addition of a sialic acid or nonulosonate residue abrogates mAb 3F11 binding (upper panel). LOS was also visualized by silver staining (middle panel). Sialylation or nonulosonate (NulO) modification was also quantified using whole cell ELISA with mAb 3F11 (lower graph).
To define the substrate specificity of gonococcal LOS sialyltransferase, N. gonorrhoeae F62 ΔIgtD was grown in media alone, or media that contained the CMP-activated derivatives of 7 nonulosonates (listed in Table 1), each at a concentration of 30 μM (20 μg/ml). Following incubation for 2 h at 37° C., bacteria were washed, lysed with protease K/LDS sample buffer and separated on 12% Bis-tris gels. Blots were probed with mAb 3F11, which binds to the terminal lactosamine residue of lacto-N-neotetraose (LNT); any extension beyond the terminal Gal (in this instance with a nonose) would abrogate 3F11 binding. […] Whole cell ELISA with mAb 3F11 confirmed results of western blotting (FIG. 1, lower graph).
Bacteria (F62 ΔIgtD) grown overnight on chocolate agar plates were suspended in gonococcal liquid media supplemented with IsoVitaleX (11) that contained specified concentrations of the CMP-nonulosonate. Bacteria were then incubated at 37° C. for the period specified in each experiment.
Gonococcal lysates treated with protease K (100 μg/ml) and NuPAGE® LDS Sample Buffer (4×) (Invitrogen) were separated on NuPAGE® 12% Bis-Tris (Invitrogen) gels using Novex® MES running buffer (Invitrogen) followed by sliver staining with the Bio-Rad Silver Stain Kit, or were transferred to an Immobilon PVDF membrane (Millipore). Membranes were blocked with PBS/1% milk and probed with tissue culture supernatants that contained mAb 3F11. mAb 3F11-reactive LOS bands were disclosed with anti-mouse IgM conjugated to alkaline phosphatase followed by the addition of BCIP®/NBT-Purple Liquid Substrate (Sigma).

[3] = test system: N. gonorrhoeae F62 ΔIgtD; test: Flow cytometry for factor H binding to bacteria; type: cell-based
Method: FIG. 3. Effects of LOS modification with various nonulosonate analogues on fH binding to N. gonorrhoeae. N. gonorrhoeae F62 ΔIgtD was grown in media alone, or media supplemented with 20 μg/ml (˜30 μM) of each of the indicated CMP-nonulosonates. Binding of bacteria to fH (10 μg/ml) was measured by flow cytometry using polyclonal goat anti-human fH. The control indicates reaction mixtures that lacked fH. Y-axis, median fluorescence of fH binding. The mean (SD) of 2 independent repeats is shown.
FIG. 7. […] A. N. gonorrhoeae F62 ΔIgtD was incubated in media containing CMP-Neu5Ac (20 μg/ml), followed […] by the addition of either CMP-Neu5Ac9Az or CMP-Leg5Ac7Ac (20, 2 or 0.2 μg/ml). Bacteria were grown for 2 h and fH binding detected by FACS using polyclonal goat anti-human fH. The Y-axis represents median fluorescence. The mean (SEM) of two independent observations is shown. B. Development of serum resistance lags behind fH binding when measured as a function of time of exposure of bacteria to CMP-Neu5Ac. CMP-Neu5Ac (20 μg/ml) was added to media containing F62 ΔIgtD and bacteria were taken at the time points indicated on the X-axis and assayed for fH binding by FACS with anti-fH mAb 90× (left Y-axis; median fluorescence (SEM)), or tested for its ability to resist killing by 10% NHS (right Y-axis; percent survival). The data represent 2-3 independent experiments. C. Representative histograms of a fH binding FACS experiment.
The addition of a terminal Neu5Ac residue to LNT-expressing LOS enhances binding of the alternative pathway inhibitor, factor H, which contributes to the ability of sialylated gonococci to resist killing by complement (7). fH binding to N. gonorrhoeae F62 ΔIgtD grown in the presence of each of the CMP-nonulosonates (20 μg/ml or 30 μM) was examined (FIG. 3). […] Reducing the CMP-nonulosonate concentrations in growth media to 2 μg/ml (3 μM) yielded similar fH binding results (FIG. 9B). Further, modification of LOS with Neu5Ac or Neu5Gc yielded similar amounts of fH binding over CMP-sialic acid concentrations ranging from 0.5 to 4 μg/ml, with near maximal fH binding observed even at the lowest concentration tested (FIG. 9C).
fH binding to bacteria was performed using flow cytometry as described previously (14). Briefly, bacteria (F62 ΔIgtD) were harvested from chocolate agar plates and grown in liquid media that contained the specified concentration of the CMP-nonulosonate as described above. Bacteria were then washed with Hanks Balanced Salt Solution (HBSS) containing 1 mM Ca^2+ and 1 mM Mg^2+ (HBSS^++) and incubated with fH purified from human plasma (Complement Technology, Inc.; concentration specified for each experiment). Bound fH was detected using either anti-fH mAb (Quidel, catalog no. A254 (mAb 90×)) or goat anti-human fH, followed by FITC conjugated anti-mouse IgG or anti-goat IgG, respectively (Sigma); both Abs had similar performance characteristics. All reaction mixtures were carried out in HBSS^++/1% BSA in a final volume of 50 μl. Flow cytometry was performed using a FACSCalibur instrument (Becton Dickinson) and data were analyzed using FlowJo (version 7.2.5; Tree Star, Inc.).

T1 sequence (P72074 whole entry): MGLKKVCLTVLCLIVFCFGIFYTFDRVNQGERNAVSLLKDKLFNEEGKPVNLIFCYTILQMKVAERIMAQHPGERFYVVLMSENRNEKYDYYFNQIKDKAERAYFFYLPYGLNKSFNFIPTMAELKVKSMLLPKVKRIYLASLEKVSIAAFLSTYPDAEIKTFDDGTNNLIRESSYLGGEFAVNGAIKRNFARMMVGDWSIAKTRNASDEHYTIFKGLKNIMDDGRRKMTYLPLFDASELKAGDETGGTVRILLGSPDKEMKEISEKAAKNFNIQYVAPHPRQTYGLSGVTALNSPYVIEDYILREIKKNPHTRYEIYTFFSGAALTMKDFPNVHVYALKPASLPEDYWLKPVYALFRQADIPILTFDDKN

SMILES	bacterial survival / serum resistance ([1]; all serum concentrations tested (10, 6.7, 3.3%), 30 μM)	mAb 3F11 binding / incorporation of nonulosonate onto LNT LOS (use as Lst substrate) [2]	resistance to 10% serum ([1]; CMP-nonulosonate 3 μM (~2 μg/ml), 10% serum)	Serum resistance ([1]; summary Table 1)	fH binding ([3]; CMP-nonulosonate 20 μg/ml or 30 μM, vs unsialylated F62 ΔIgtD)	fH binding ([3]; CMP-sialic acid 0.5 to 4 μg/ml, lowest concentration tested)	fH binding ([3]; summary Table 1)
CC(=O)N[C@H]([C@@H]1O[C@](OP(=O)(O)OC[C@H]2O[C@@H](n3ccc(N)nc3=O)[C@H](O)[C@@H]2O)(C(=O)O)C[C@H](O)[C@@H]1NC(C)=O)[C@H](C)O [CMP-Pse5Ac7Ac, reference compound]	did not affect serum resistance	not incorporated; also recorded: not utilized	–	–	–	–	–
Nc1ccn([C@@H]2O[C@H](COP(=O)(O)O[C@@]3(C(=O)O)C[C@H](O)[C@@H](NC(=O)CO)[C@H]([C@H](O)[C@H](O)CO)O3)[C@@H](O)[C@H]2O)c(=O)n1 [CMP-Neu5Gc, CMP-5-hydroxyacetamido-3,5-dideoxy-D-glycero-D-galacto-nonulosonic acid, reference compound]	–	decreased binding of mAb 3F11	conferred resistance	high (>100% survival in 10% serum)	Maximal	near maximal	high
